In the first assay the target is SIK2 (Homo sapiens, UniProt Q9H0K1). Put plainly: SIK2 Enzymatic Assay High Version 2 (High ATP). It is filed as biochemical.
SIK2, sequence (Q9H0K1 whole entry, species assumed): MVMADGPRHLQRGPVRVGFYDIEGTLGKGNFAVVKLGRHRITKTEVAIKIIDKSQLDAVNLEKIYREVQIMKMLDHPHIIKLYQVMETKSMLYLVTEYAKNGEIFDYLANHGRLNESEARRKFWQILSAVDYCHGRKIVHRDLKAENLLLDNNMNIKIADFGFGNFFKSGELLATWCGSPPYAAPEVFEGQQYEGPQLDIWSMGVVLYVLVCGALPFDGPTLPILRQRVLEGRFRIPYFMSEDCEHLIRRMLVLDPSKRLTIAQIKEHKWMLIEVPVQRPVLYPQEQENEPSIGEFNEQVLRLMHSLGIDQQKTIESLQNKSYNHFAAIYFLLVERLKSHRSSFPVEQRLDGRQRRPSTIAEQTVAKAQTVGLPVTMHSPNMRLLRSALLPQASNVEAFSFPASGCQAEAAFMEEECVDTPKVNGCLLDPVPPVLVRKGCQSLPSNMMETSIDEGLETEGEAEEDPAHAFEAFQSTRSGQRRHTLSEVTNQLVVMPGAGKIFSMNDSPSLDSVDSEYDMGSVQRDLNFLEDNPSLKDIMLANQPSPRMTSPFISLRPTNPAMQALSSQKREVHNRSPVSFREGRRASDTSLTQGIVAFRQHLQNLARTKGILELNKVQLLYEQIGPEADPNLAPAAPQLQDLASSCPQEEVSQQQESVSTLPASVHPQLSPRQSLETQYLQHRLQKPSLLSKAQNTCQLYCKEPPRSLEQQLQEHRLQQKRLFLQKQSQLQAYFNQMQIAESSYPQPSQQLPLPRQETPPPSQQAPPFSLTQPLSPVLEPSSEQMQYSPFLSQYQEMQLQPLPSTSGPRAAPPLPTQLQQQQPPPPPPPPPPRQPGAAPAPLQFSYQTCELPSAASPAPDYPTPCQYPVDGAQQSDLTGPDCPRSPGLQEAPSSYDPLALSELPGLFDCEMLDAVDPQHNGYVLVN
Settings: not given
In outline: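 At room temperature, enzyme (6 nM, 2× final) was preincubated with compound for 30 min, then 6 mM ATP and 400 μM HDAC5tide (both 2× final) were added for 2 h. ADP formed was measured by ADP-Glo Max (2 h reagent, 1 h detection) using luminescence.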
For the molecule `CC(=O)N1[C@@H]2COC[C@H]1C[C@@H](Oc1cnc(C)cc1-c1ccn3nc(NC(=O)C4CC4)cc3c1)C2` [Example 339, N-[5-[5-[[(1S,5R)-9-acetyl-3-oxa-9-azabicyclo[3.3.1]nonan-7-yl]oxy]-2-methyl-4-pyridyl]pyrazolo[1,5-a]pyridin-2-yl]cyclopropanecarboxamide], it took 0.00231 µM to reach half-maximal inhibition (IC50).

`Cc1cc(-c2ccn3nc(Nc4cc(C)nc(C)n4)cc3c2)c(O[C@H]2C[C@H]3COC[C@@H](C2)N3C)cn1` [Example 417, N-(2,6-dimethylpyrimidin-4-yl)-5-[2-methyl-5-[[(1S,5R,7s)-9-methyl-3-oxa-9-azabicyclo[3.3.1]nonan-7-yl]oxy]-4-pyridyl]pyrazolo[1,5-a]pyridin-2-amine]: the IC50 (usually the concentration that gives 50% inhibition) is under 0.000847 µM.

The molecule `Cc1cc(-c2ccn3nc(Nc4cn(C)nc4F)cc3c2)c(O[C@H]2C[C@H]3COC[C@@H](C2)N3)cn1` [Example 398, N-(3-fluoro-1-methyl-pyrazol-4-yl)-5-[2-methyl-5-[[(1S,5R,7s)-3-oxa-9-azabicyclo[3.3.1]nonan-7-yl]oxy]-4-pyridyl]pyrazolo[1,5-a]pyridin-2-amine] returned an IC50 of under 0.000847 µM.

`Cc1cc(-c2ccn3nc(Nc4cnn(C)c4)cc3c2)c(O[C@H]2C[C@H]3COC[C@@H](C2)N3)cn1` [Example 123, 7-endo-5-[2-methyl-5-[[(1S,5R)-3-oxa-9-azabicyclo[3.3.1]nonan-7-yl]oxy]-4-pyridyl]-N-(1-methylpyrazol-4-yl)pyrazolo[1,5-a]pyridin-2-amine] had an IC50 of 0.00094 µM.

For `CC(=O)N1[C@@H]2COC[C@H]1C[C@@H](Oc1cnc(C)cc1-c1ccn3nc(Nc4ccc(=O)n(C)n4)cc3c1)C2` [Example 637, 6-((5-(5-(((1R,5S,7s)-9-acetyl-3-oxa-9-azabicyclo[3.3.1]nonan-7-yl)oxy)-2-methylpyridin-4-yl)pyrazolo[1,5-a]pyridin-2-yl)amino)-2-methylpyridazin-3(2H)-one], the 50% inhibitory concentration (IC50) is 0.00642 µM.

Take `Cc1cc(-c2cn3cc(Nc4cc(C)nc(C)n4)nc3cn2)c(O[C@H]2C[C@H]3COC[C@@H](C2)N3)cn1` [Example 350, N-(2,6-dimethylpyrimidin-4-yl)-6-[2-methyl-5-[[(1R,5S)-3-oxa-9-azabicyclo[3.3.1]nonan-7-yl]oxy]-4-pyridyl]imidazo[1,2-a]pyrazin-2-amine]: half-maximal inhibition (IC50) was put at 0.0403 µM.

The same assay, now with this note: enzyme 6 nM, 6 mM ATP and 400 μM HDAC5tide (each 2× final concentration); 30 minutes pre-incubation, 2 hours; ADP-Glo Max luminescence; read-out: SIK2 high ATP IC50 (μM) (Test Example 2).
For `Cc1cc(-c2ccn3nc(Nc4cc(C)nc(C)n4)cc3c2)c(O[C@@H]2COC(C)(C)C2)cn1` (single isomer, unassigned) [Example 533, (*S)—N-(2,6-dimethylpyrimidin-4-yl)-5-[5-(5,5-dimethyltetrahydrofuran-3-yl)oxy-2-methyl-4-pyridyl]pyrazolo[1,5-a]pyridin-2-amine], the IC50 was found to be 0.00543 µM.

`Cc1cc(Nc2cc3cc(-c4cc(OC(F)F)ncc4OC[C@H]4CC(=O)NC4(C)C)ccn3n2)nc(C)n1` (single isomer, unassigned) [Example 732, (*S)-4-[[6-(difluoromethoxy)-4-[2-[(2,6-dimethylpyrimidin-4-yl)amino]pyrazolo[1,5-a]pyridin-5-yl]-3-pyridyl]oxymethyl]-5,5-dimethyl-pyrrolidin-2-one]: the concentration for half-maximal inhibition (IC50) turned out to be 0.00164 µM.

As for `Cc1cc(-c2ccn3nc(Nc4cc(C)nc(C)n4)cc3c2)c(O[C@H]2CCOC(C)(C)C2)cn1` (single isomer, unassigned) [Example 578, (*S)—N-(2,6-dimethylpyrimidin-4-yl)-5-[5-(2,2-dimethyltetrahydropyran-4-yl)oxy-2-methyl-4-pyridyl]pyrazolo[1,5-a]pyridin-2-amine], the IC50 came to 0.0998 µM.

With `Cc1cc(-c2ccn3nc(Nc4cnc(C(C)(C)C)cn4)cc3c2)c(OCC(C)(C)O)cn1` [Example 613, 1-[[4-[2-[(5-tert-butylpyrazin-2-yl)amino]pyrazolo[1,5-a]pyridin-5-yl]-6-methyl-3-pyridyl]oxy]-2-methyl-propan-2-ol], the IC50 amounted to 0.1 µM.

`Cc1cc(-c2ccn3nc(NC(=O)C4CC4)cc3c2)c(O[C@H]2CC[C@@](O)(c3ccccc3)CC2)cn1` [Example 192, N-(5-(5-(((1r,1r)-4-hydroxy-4-phenylcyclohexyl)oxy)-2-methylpyridin-4-yl)pyrazolo[1,5-a]pyridin-2-yl)cyclopropanecarboxamide]: the IC50 worked out at 0.0612 µM.

In the case of `Cc1cc(-c2ccn3nc(Nc4cc(C)c(=O)n(C)n4)cc3c2)c(OC[C@](C)(N)C(F)(F)F)cn1` (single isomer, unassigned) [Example 312, (*S)-6-[[5-[5-(2-amino-3,3,3-trifluoro-2-methyl-propoxy)-2-methyl-4-pyridyl]pyrazolo[1,5-a]pyridin-2-yl]amino]-2,4-dimethyl-pyridazin-3-one], the IC50 is under 0.000847 µM.

Turning to `O=C(Nc1cc2cc(-c3cc(OC(F)F)ncc3O[C@H]3CC[C@H](O)CC3)ccn2n1)C1CC1` [Example 723, N-[5-[2-(difluoromethoxy)-5-(4-hydroxycyclohexoxy)-4-pyridyl]pyrazolo[1,5-a]pyridin-2-yl]cyclopropanecarboxamide], the IC50 came to 0.00163 µM.

With `Cc1cc(-c2ccn3nc(Nc4ccc5cc[nH]c5n4)cc3c2)c(O[C@H]2CC[C@H](O)CC2)cn1` [Example 239, 4-[[6-methyl-4-[2-(1H-pyrrolo[2,3-b]pyridin-6-ylamino)pyrazolo[1,5-a]pyridin-5-yl]-3-pyridyl]oxy]cyclohexanol], the IC50 is 0.00245 µM.

Turning to `Cc1cc(-c2ccn3nc(NC(=O)C4CC4)cc3c2)c(OC2CCC(=NO)CC2)cn1` (stereo not drawn) [Example 199, N-[5-[5-(4-hydroxyiminocyclohexoxy)-2-methyl-4-pyridyl]pyrazolo[1,5-a]pyridin-2-yl]cyclopropanecarboxamide], the half-maximal inhibitory concentration (IC50) worked out at 0.0502 µM.

As for `CNc1cc(-c2ccn3nc(Nc4cc(C)nc(C)n4)cc3c2)c(OC[C@@H]2CNCCO2)cn1` [Example 501, N-(2,6-dimethylpyrimidin-4-yl)-5-[2-(methylamino)-5-[[(2S)-morpholin-2-yl]methoxy]-4-pyridyl]pyrazolo[1,5-a]pyridin-2-amine], the IC50 was 0.00172 µM.

As for `Cc1cc(-c2ccn3nc(NC(=O)C4CC4)cc3c2)c(OC[C@@H](N)c2ccccc2)cn1` (single isomer, unassigned) [Example 467], the IC50 came to 0.0304 µM.

As for `Cc1cc(-c2ccn3nc(Nc4cc(C)nc(C)n4)cc3c2)c(OC[C@@H]2COC[C@H](O)C2)cn1` (single isomer, unassigned) [Example 351, (3*R, 5*S)-5-[[4-[2-[(2,6-dimethylpyrimidin-4-yl)amino]pyrazolo[1,5-a]pyridin-5-yl]-6-methyl-3-pyridyl]oxymethyl]tetrahydropyran-3-ol], the half-inhibitory concentration (IC50) stood at 0.00278 µM.

Turning to `Cc1cc(-c2ccn3nc(Nc4cc(C)c(=O)n(C)n4)cc3c2)c(OC[C@@](C)(N)C(F)(F)F)cn1` (single isomer, unassigned) [Example 311, (*R)-6-[[5-[5-(2-amino-3,3,3-trifluoro-2-methyl-propoxy)-2-methyl-4-pyridyl]pyrazolo[1,5-a]pyridin-2-yl]amino]-2,4-dimethyl-pyridazin-3-one], the IC50 was determined as 0.0057 µM.

Take `Cc1cc(-c2ccn3nc(Nc4ccc5nccn5n4)cc3c2)c(OCC(C)(C)O)cn1` [Example 260, 1-[[4-[2-(imidazo[1,2-b]pyridazin-6-ylamino)pyrazolo[1,5-a]pyridin-5-yl]-6-methyl-3-pyridyl]oxy]-2-methyl-propan-2-ol]: the IC50 stood at 0.0183 µM.

As to `Cc1cc(-c2ccn3nc(NC(=O)C4CC4)cc3c2)c(OC[C@@H](O)C2CCCCC2)cn1` (single isomer, unassigned) [Example 197, (*S)—N-(5-(5-(2-cyclohexyl-2-hydroxyethoxy)-2-methylpyridin-4-yl)pyrazolo[1,5-a]pyridin-2-yl)cyclopropanecarboxamide], the 50% inhibitory concentration (IC50) worked out at 0.0195 µM.

Turning to `Cc1cc(-c2ccn3nc(Nc4cc(C)nc(C)n4)cc3c2)c(OC[C@@H]2CN(S(C)(=O)=O)CCO2)cn1` [Example 629, N-(2,6-dimethylpyrimidin-4-yl)-5-[2-methyl-5-[[(2S)-4-methylsulfonylmorpholin-2-yl]methoxy]-4-pyridyl]pyrazolo[1,5-a]pyridin-2-amine], the IC50 worked out at 0.175 µM.

Regarding `Cc1cc(Nc2cc3cc(-c4cc(OC(F)F)ncc4OCC(C)(C)C(N)=O)ccn3n2)nc(C)n1` [Example 727, 3-[[6-(difluoromethoxy)-4-[2-[(2,6-dimethylpyrimidin-4-yl)amino]pyrazolo[1,5-a]pyridin-5-yl]-3-pyridyl]oxy]-2,2-dimethyl-propanamide], the IC50 is 0.0152 µM.

For `CNc1nc(C)cc(Nc2cc3cc(-c4cc(Cl)ncc4OCC(C)(C)C#N)ccn3n2)n1` [Example 675, 3-[[6-chloro-4-[2-[[6-methyl-2-(methylamino)pyrimidin-4-yl]amino]pyrazolo[1,5-a]pyridin-5-yl]-3-pyridyl]oxy]-2,2-dimethyl-propanenitrile], the IC50 was 0.0391 µM.

As for `Cc1cc(-c2ccn3nc(Nc4cc(C)nc(C)n4)cc3c2)c(OC[C@](C)(N)C(F)(F)F)cn1` (racemic) [Example 267, (rac-)-5-[5-(2-amino-3,3,3-trifluoro-2-methyl-propoxy)-2-methyl-4-pyridyl]-N-(2,6-dimethylpyrimidin-4-yl)pyrazolo[1,5-a]pyridin-2-amine], the IC50 was found to be 0.00331 µM.

Consider `Cc1cc(Nc2cc3cc(-c4cc(O[C@H](C)C#N)ncc4O[C@H]4CC[C@H](O)CC4)ccn3n2)nc(C)n1` (relative stereo) [Example 721, (*R)-2-[[4-[2-[(2,6-dimethylpyrimidin-4-yl)amino]pyrazolo[1,5-a]pyridin-5-yl]-5-(4-hydroxycyclohexoxy)-2-pyridyl]oxy]propanenitrile], for which the IC50 was 0.0261 µM.

Consider `Cc1cc(-c2ccn3nc(Nc4cc(C)nc(C)n4)cc3c2)c(OC[C@@H](O)C2CC2)cn1` [Example 559, (1S)-1-cyclopropyl-2-[[4-[2-[(2,6-dimethylpyrimidin-4-yl)amino]pyrazolo[1,5-a]pyridin-5-yl]-6-methyl-3-pyridyl]oxy]ethanol], for which the IC50 was found to be 0.00686 µM.

The record behind these values is patent publication US20240158392A1 (Janssen Biotech, Inc., priority 2021, published 2024).
